Reference: ChEMBL document CHEMBL2311251, “Synthesis and structure-activity relationship of piperidine-derived non-urea soluble epoxide hydrolase inhibitors” (Bioorg Med Chem Lett, 2013)

Columns and labels:
[1] = biological target: T1, Bifunctional epoxide hydrolase 2 (Homo sapiens, UniProt P34913); experiment: Inhibition of human sEH assessed as 6-methoxy-2-naphthaldehyde generation preincubated for 10 before addition of cyano(2-methyl-oxynaphthalen-6-yl)methyl trans-(3-phenyloxyran-2-yl) methyl carbonate by fluorescence analysis
T1 sequence (P34913 whole entry): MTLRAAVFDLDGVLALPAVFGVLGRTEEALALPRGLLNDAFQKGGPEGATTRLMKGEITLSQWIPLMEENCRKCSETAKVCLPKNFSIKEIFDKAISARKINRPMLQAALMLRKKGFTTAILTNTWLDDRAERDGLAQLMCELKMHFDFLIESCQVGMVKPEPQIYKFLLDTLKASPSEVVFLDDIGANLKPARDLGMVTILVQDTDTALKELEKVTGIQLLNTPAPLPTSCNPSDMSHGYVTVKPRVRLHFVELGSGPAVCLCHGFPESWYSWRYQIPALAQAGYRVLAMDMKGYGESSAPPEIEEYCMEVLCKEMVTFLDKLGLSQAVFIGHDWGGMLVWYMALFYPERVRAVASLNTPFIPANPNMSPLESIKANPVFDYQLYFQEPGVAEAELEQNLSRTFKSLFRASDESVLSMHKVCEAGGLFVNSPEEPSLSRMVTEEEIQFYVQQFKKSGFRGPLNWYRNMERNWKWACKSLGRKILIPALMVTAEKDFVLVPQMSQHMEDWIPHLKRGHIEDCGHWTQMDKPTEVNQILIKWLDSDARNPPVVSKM

Liver microsomes = experiment: Half life in human liver microsomes after 90 mins by LC/MS analysis; assay type: ADME, Microsome; settings: 1.5 h

Structure (SMILES) | IC50 [1] [nM] | t1/2 (Liver microsomes) [min]
Cc1ccc(S(=O)(=O)N2CCC(C(=O)Nc3ccc4ncccc4c3)CC2)c(C)c1 | 13 | –
COC(=O)c1ccc2cc(NC(=O)C3CCN(S(=O)(=O)c4ccc(C)cc4C)CC3)ccc2c1 | 110 | –
Cc1ccc(S(=O)(=O)N2CCC(C(=O)Nc3ccc4c(c3)OCO4)CC2)c(C)c1 | 5.2 | 46
Cc1ccc(S(=O)(=O)N2CCC(C(=O)NC3CC3)CC2)c(C)c1 | – | 180
Cc1ccc(S(=O)(=O)N2CCC(C(=O)NC3CCCc4ccccc43)CC2)c(C)c1 (stereo unspecified) | 41 | –
Cc1ccc(S(=O)(=O)N2CCC(C(=O)Nc3ccccc3)CC2)c(C)c1 | 6.9 | –
Cc1ccc(S(=O)(=O)N2CCC(C(=O)Nc3ccccc3Cl)CC2)c(C)c1 | 8.7 | –
Cc1ccc(S(=O)(=O)N2CCC(C(=O)Nc3ccccc3C)CC2)c(C)c1 | 20 | –
COc1ccc(NC(=O)C2CCN(S(=O)(=O)c3ccc(C)cc3C)CC2)cc1 | 25 | –
Cc1ccc(S(=O)(=O)N2CCC(C(=O)Nc3ccc(Oc4ccccc4)cc3)CC2)c(C)c1 | 20 | –
Cc1ccc(S(=O)(=O)N2CCC(C(=O)Nc3ccc(C(=O)O)cc3)CC2)c(C)c1 | 17 | –
Cc1ccc(S(=O)(=O)N2CCC(C(=O)Nc3ccc([N+](=O)[O-])cc3)CC2)c(C)c1 | 12 | –
Cc1ccc(S(=O)(=O)N2CCC(C(=O)Nc3ccc(N4CCCCC4)c(C(N)=O)c3)CC2)c(C)c1 | 43 | –
Cc1ccc(S(=O)(=O)N2CCC(C(=O)Nc3ccc(C(C)C)cc3)CC2)c(C)c1 | 6.7 | 25
Cc1ccc(S(=O)(=O)N2CCC(C(=O)Nc3ccc(S(=O)(=O)C(F)(F)F)cc3)CC2)c(C)c1 | 1.6 | 36
Cc1ccc(S(=O)(=O)N2CCC(C(=O)Nc3ccc(F)cc3)CC2)c(C)c1 | 290 | –
Cc1ccc(S(=O)(=O)N2CCC(C(=O)Nc3ccc(Br)cc3)CC2)c(C)c1 | 45 | –
Cc1ccc(S(=O)(=O)N2CCC(C(=O)Nc3ccc(Cl)c(C(F)(F)F)c3)CC2)c(C)c1 | 78 | –
Cc1ccc(S(=O)(=O)N2CCC(C(=O)Nc3ccc4ccccc4c3)CC2)c(C)c1 | 8.3 | 8.7
Cc1ccc(S(=O)(=O)N2CCC(C(=O)Nc3cnc4ccccc4c3)CC2)c(C)c1 | 2.3 | –
Cc1ccc(S(=O)(=O)N2CCC(C(=O)Nc3cccc4cnccc34)CC2)c(C)c1 | 23 | 220

Structure (SMILES) | IC50 [1] [nM] | t1/2 (Liver microsomes) [min]
Cc1ccc(S(=O)(=O)N2CCC(C(=O)Nc3ccc4cc(C(=O)O)ccc4c3)CC2)c(C)c1 | 0.6 | 36
COc1cc2c(cc1NC(=O)C1CCN(S(=O)(=O)c3ccc(C)cc3C)CC1)OCO2 | 30000 | –
Cc1ccc(S(=O)(=O)N2CCC(C(=O)N[C@H]3C[C@@H]3c3ccccc3)CC2)c(C)c1 | 6900 | –
Cc1ccc(S(=O)(=O)N2CCC(C(=O)NC3CCCC3)CC2)c(C)c1 | – | 14
Cc1ccc(S(=O)(=O)N2CCC(C(=O)NC34CC5CC(CC(C5)C3)C4)CC2)c(C)c1 | 1.7 | 14
Cc1ccc(S(=O)(=O)N2CCC(C(=O)Nc3ccccc3F)CC2)c(C)c1 | 1.1 | –
Cc1ccc(S(=O)(=O)N2CCC(C(=O)Nc3ccccc3Br)CC2)c(C)c1 | 0.6 | –
Cc1ccc(S(=O)(=O)N2CCC(C(=O)Nc3ccccc3O)CC2)c(C)c1 | 1.2 | 2.4
Cc1ccc(S(=O)(=O)N2CCC(C(=O)Nc3ccc(O)cc3)CC2)c(C)c1 | 0.4 | –
COC(=O)c1ccc(NC(=O)C2CCN(S(=O)(=O)c3ccc(C)cc3C)CC2)cc1 | 8.5 | 3.7
Cc1ccc(S(=O)(=O)N2CCC(C(=O)Nc3ccc(OC(F)(F)F)cc3)CC2)c(C)c1 | 23 | –
Cc1ccc(S(=O)(=O)N2CCC(C(=O)Nc3ccc(N4CCCCC4)cc3)CC2)c(C)c1 | 20 | –
Cc1ccc(S(=O)(=O)N2CCC(C(=O)Nc3ccc(N4CCOCC4)cc3)CC2)c(C)c1 | 250 | –
Cc1ccc(S(=O)(=O)N2CCC(C(=O)Nc3ccc(C(F)(F)F)cc3)CC2)c(C)c1 | 30 | –
Cc1ccc(S(=O)(=O)N2CCC(C(=O)Nc3cccc(C(F)(F)F)c3)CC2)c(C)c1 | 640 | –
Cc1ccc(S(=O)(=O)N2CCC(C(=O)Nc3ccc(Cl)cc3)CC2)c(C)c1 | 2200 | –
Cc1ccc(S(=O)(=O)N2CCC(C(=O)Nc3cc(Cl)cc(Cl)c3)CC2)c(C)c1 | 25 | –
Cc1ccc(S(=O)(=O)N2CCC(C(=O)Nc3ccc(Cl)c(Cl)c3)CC2)c(C)c1 | 55 | –
Cc1ccc(S(=O)(=O)N2CCC(C(=O)Nc3cccc4cccnc34)CC2)c(C)c1 | 6 | 11
Cc1ccc(S(=O)(=O)N2CCC(C(=O)NCC(C)C)CC2)c(C)c1 | 18 | –
